How the values were obtained:
Assay type in all cases: cell-based
GAP43 = molecular target: T1, GAP43 (Homo sapiens, UniProt P17677); assay: Acyl resin-assisted capture detection of GAP43 palmitoylation in INCL lymphoblasts; details: 0.05 μmol/10^7 cells, 24 h
T1 construct: Western blot detection of endogenous GAP43 in acyl resin-assisted capture fractions; host or cells: INCL human lymphoblasts
T1 sequence (P17677 1-238): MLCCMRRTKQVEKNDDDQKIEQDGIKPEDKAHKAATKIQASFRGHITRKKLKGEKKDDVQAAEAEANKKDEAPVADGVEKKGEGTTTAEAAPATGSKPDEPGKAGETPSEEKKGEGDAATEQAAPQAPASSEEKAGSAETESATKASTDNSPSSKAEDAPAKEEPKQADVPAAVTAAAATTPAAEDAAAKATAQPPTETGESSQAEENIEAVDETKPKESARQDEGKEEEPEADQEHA
Protocol: INCL Lymphoblasts were adjusted to 1,000,000 cells/mL in 20 mL of OptiMem Media. Stock solutions of compounds were prepared in DMSO as before and diluted to the indicated final concentration in the cell suspension. […] Cells were pelleted by centrifugation at 1,000 rcf for 5 min and the pellet processed using a CAPTUREome S-Palmitoylated Protein Kit (Badrilla, UK) according to the manufacturer's protocol. Samples were resolved by electrophoresis using 4-20% SDS-polyacrylamide gels (Bio-Rad) under denaturing and reducing conditions. Proteins were then electrotransferred to a PVDF membrane (Bio-Rad). The membrane was blocked with 3% BSA and then subjected to immunoblot analysis using GAP-43 (B-5) Antibody (sc-17790) (Santa Cruz Biotechnology) and secondary antibody goat anti-mouse IgG HRP (ThermoFisher). Chemiluminescent detection was performed by using SuperSignal West Pico PLUS chemiluminescent substrate (ThermoFisher) according to the manufacturer's instructions.
Assays were performed in 3 biological replicates. Each replicate involved the analysis of 4 to 5 conditions side-by-side. Western blots were analyzed using ImageJ^1. The intensity of the protein band in each cleaved bound fraction (palmitoylated protein fraction) was normalized to the intensity of the corresponding input fraction (total protein fraction). The values within individual S 4 replicates were normalized to the control or vehicle condition and reported as means±SD. An unpaired t test was performed to determine the significance between means.

flotillin-1 = molecular target: T2, flotillin-1 (Homo sapiens, UniProt O75955); assay: Acyl resin-assisted capture detection of flotillin-1 palmitoylation in HeLa cells; details: 1.25 μmol/10^7 cells, relative to vehicle
T2 construct: we detected the palmitoylation levels of eight known palmitoylated proteins after treatment with 1; endogenous in cells; host or cells: HeLa
T2 sequence (O75955 1-427): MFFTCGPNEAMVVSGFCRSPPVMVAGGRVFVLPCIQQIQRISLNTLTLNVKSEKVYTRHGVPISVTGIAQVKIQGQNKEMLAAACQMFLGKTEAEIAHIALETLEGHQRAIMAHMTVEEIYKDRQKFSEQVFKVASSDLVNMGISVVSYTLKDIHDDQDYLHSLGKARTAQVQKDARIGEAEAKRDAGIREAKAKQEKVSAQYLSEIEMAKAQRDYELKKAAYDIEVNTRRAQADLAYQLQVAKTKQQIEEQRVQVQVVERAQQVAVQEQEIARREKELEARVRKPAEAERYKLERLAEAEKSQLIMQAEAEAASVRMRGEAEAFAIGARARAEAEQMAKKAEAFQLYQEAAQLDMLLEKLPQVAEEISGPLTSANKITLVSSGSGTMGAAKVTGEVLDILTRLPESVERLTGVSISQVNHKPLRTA
Protocol: (§1) HeLa cells were grown to confluency in 10 cm plates. Stock solutions of compounds were prepared in DMSO as before and diluted to the final indicated concentration in 5.5 mL of OptiMEM media before adding to cells. Cells were incubated at 37° C. for 20 min and then media removed and 3 mL of HBSS added to each plate. Cells were detached using a cell scraper, pelleted by centrifugation at 1,000 rcf for 5 min and the pellet processed using a CAPTUREome S-Palmitoylated Protein Kit (Badrilla, UK) according to the manufacturer's protocol. Samples were resolved by electrophoresis using 4-20% SDS-polyacrylamide gels (Bio-Rad) under denaturing and reducing conditions. Proteins were then electrotransferred to a PVDF membrane (Bio-Rad). […]
(§2) Assays were performed in 3 biological replicates. […] Western blots were analyzed using ImageJ^1. […]

lyric/metadherin = molecular target: T3, lyric/metadherin (Homo sapiens, UniProt Q86UE4); assay: Acyl resin-assisted capture detection of lyric/metadherin palmitoylation in HeLa cells; details: 1.25 μmol/10^7 cells, relative to vehicle
T3 construct: we detected the palmitoylation levels of eight known palmitoylated proteins after treatment with 1; endogenous in cells; host or cells: HeLa
T3 sequence (Q86UE4 1-582): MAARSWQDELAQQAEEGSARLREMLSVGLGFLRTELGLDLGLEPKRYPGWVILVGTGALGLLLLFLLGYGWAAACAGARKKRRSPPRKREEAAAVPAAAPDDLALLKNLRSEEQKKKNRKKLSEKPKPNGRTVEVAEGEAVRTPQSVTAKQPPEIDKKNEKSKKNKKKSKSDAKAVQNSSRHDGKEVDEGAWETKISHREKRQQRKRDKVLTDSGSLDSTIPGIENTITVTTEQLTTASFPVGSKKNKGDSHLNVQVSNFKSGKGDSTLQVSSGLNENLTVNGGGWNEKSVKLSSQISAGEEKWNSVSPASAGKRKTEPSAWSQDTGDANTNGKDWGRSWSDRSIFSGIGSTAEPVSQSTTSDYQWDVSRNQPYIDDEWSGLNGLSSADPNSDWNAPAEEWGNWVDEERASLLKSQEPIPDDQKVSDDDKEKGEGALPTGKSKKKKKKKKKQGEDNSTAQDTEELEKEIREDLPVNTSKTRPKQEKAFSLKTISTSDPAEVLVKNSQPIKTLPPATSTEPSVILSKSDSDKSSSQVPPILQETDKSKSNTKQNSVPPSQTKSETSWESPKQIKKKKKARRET
Protocol: as §1, §2

- level of GAP43 palmitoylation (GAP43): significantly reduced
- reduction of palmitoylation level of flotillin-1 (flotillin-1): 19-40%
- reduction of palmitoylation level of lyric/metadherin (lyric/metadherin): > 80%
SMILES: CCCCCCCCNC(=O)[C@@H](N)CS [compound 1, H2N-L-Cys-Oct]
